Assay [1] relates to GM1 production in Jurkat cells. The assay is described as follows: cells. Type of assay: cell-based. To be noted: Homo sapiens, Jurkat, 72 h.
Assay [2] deals with T1, glucosylceramide synthase (GCS) (Homo sapiens, UniProt Q16739).
T1 construct: The obtained supernatant was used; host or cells: A549 cells (lysate supernatant after sonication)
T1 sequence (Q16739 1-394): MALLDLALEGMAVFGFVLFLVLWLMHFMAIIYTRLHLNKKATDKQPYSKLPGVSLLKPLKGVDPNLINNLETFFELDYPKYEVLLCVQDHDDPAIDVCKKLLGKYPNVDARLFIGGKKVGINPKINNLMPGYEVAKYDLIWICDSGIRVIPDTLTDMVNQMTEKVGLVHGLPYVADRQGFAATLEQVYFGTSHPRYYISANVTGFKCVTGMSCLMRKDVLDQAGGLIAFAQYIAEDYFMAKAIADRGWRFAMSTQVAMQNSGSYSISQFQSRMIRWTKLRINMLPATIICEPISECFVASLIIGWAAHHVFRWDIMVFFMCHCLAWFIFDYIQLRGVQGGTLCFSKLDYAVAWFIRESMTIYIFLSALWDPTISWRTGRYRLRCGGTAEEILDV
Put plainly: GCS enzyme inhibition assay (A549 cell lysate, NBD C6-ceramide, HPLC fluorescence). In kind it is biochemical. The note with it: inhibitory activity against GCS, 37° C., 90 minutes. As to the method: Ibiglustat, known as a GCS inhibitor, was used as a control.
After the cells attached to the culture dish were washed with phosphate buffered saline (PBS), the cells were scraped off with a cell scraper and then centrifuged (4000 rpm, 3 min, 4° C.) to collect the cells in a 50 ml tube. The cell pellets were suspended in a lysis buffer (50 mM HEPES, pH 7.3, containing 1× the protease/phosphatase inhibitor cocktail), lysed by sonication, and then the lysate was centrifuged (13000 rpm, 10 min, 4° C.). The obtained supernatant was used for the quantitative analysis of proteins. The amount of proteins was measured using the BCA protein assay kit, using bovine serum albumin as a standard.
Enzymatic reactions were initiated by sequentially adding the following reaction materials to a 96 deep-well plate. Thereafter, the enzymatic reactions were performed at 37° C. for 90 minutes.
The enzymatic reactions were stopped by adding 100 μl of chloroform/methanol (2:1, v/v). After vortexing for 15 seconds, each mixture was centrifuged (4000 rpm, 10 min, 18° C.). The lower layer (50 μl) was transferred to a new 96 deep-well plate and dried with a reduced concentrator.
Data analysis was performed by the following equations. % Area(Sample)=Area(GlcCer)/[Area(Cer)+Area(GlcCer)]×100 % GCS activity=[Area(Sample)−Area(ibiglustat)]/[Area(DMSO)−Area(ibiglustat)]×100

For orientation: IC50 means the midpoint of a concentration-inhibition curve. As to `O=C(NC1CCOc2cc(-c3coc4ccccc34)ccc21)O[C@@H]1CN2CCC1CC2` (stereo partly drawn) [Example 43, (S)-quinuclidin-3-yl (7-(benzofuran-3-yl)chroman-4-yl)carbamate], the IC50 in assay [1] came out at 0.02 nM; in assay [2], 0.58 nM.
For `O=C(NC1CCOc2cc(-c3cc4ccccc4o3)ccc21)O[C@@H]1CN2CCC1CC2` (stereo partly drawn) [Example 44, (S)-quinuclidin-3-yl (7-(benzofuran-2-yl)chroman-4-yl)carbamate] the same measures were 15.6 nM and 9.17 nM.
The like results for `O=C(NC1CCOc2cc(-c3ccc4cc[nH]c4c3)ccc21)O[C@@H]1CN2CCC1CC2` (stereo partly drawn) [Example 45, (S)-quinuclidin-3-yl (7-(1H-indol-6-yl)chroman-4-yl)carbamate] were, in that order, 26.2 nM and 4.13 nM.
Consider `O=C(NC1CCOc2cc(-c3c[nH]c4ccccc34)ccc21)O[C@@H]1CN2CCC1CC2` (stereo partly drawn) [Example 46, (S)-quinuclidin-3-yl (7-(1H-indol-3-yl)chroman-4-yl)carbamate], for which the results for the IC50 in assay [1] and in assay [2] were 20.5 nM and 4.08 nM, respectively.
The like results for `O=C(NC1CCOc2cc(-c3cccc4cc[nH]c34)ccc21)O[C@@H]1CN2CCC1CC2` (stereo partly drawn) [Example 47, (S)-quinuclidin-3-yl (7-(1H-indol-7-yl)chroman-4-yl)carbamate] were, in that order, 10.5 nM and 2.55 nM.
For `O=C(NC1CCOc2cc(-c3cccc4[nH]ncc34)ccc21)O[C@@H]1CN2CCC1CC2` (stereo partly drawn) [Example 48, (S)-quinuclidin-3-yl (7-(1H-indazol-4-yl)chroman-4-yl)carbamate] the same measures were 42 nM and 6.27 nM.
For `O=C(NC1CCOc2cc(-c3cccc4cn[nH]c34)ccc21)O[C@@H]1CN2CCC1CC2` (stereo partly drawn) [Example 49, (S)-quinuclidin-3-yl (7-(1H-indazol-7-yl)chroman-4-yl)carbamate] the same measures were 12.3 nM and 3.8 nM.
Turning to `Cn1ncc2ccc(-c3ccc4c(c3)OCCC4NC(=O)O[C@@H]3CN4CCC3CC4)cc21` (stereo partly drawn) [Example 50, (S)-quinuclidin-3-yl (7-(1-methyl-1H-indazol-6-yl)chroman-4-yl)carbamate], the values for the IC50 in assay [1] and in assay [2] were 25.9 nM and 3.98 nM, respectively.
For `Cn1ncc2c(-c3ccc4c(c3)OCCC4NC(=O)O[C@@H]3CN4CCC3CC4)cccc21` (stereo partly drawn) [Example 51, (S)-quinuclidin-3-yl (7-(1-methyl-1H-indazol-4-yl)chroman-4-yl)carbamate] the same measures were 4.99 nM and 1.02 nM.
The like results for `Cn1c(-c2ccc3c(c2)OCCC3NC(=O)O[C@@H]2CN3CCC2CC3)cc2ccccc21` (stereo partly drawn) [Example 52, (S)-quinuclidin-3-yl (7-(1-methyl-1H-indol-2-yl)chroman-4-yl)carbamate] were, in that order, 24.8 nM and 7.06 nM.
For `O=C(NC1CCOc2cc(-c3cncc4ccccc34)ccc21)O[C@@H]1CN2CCC1CC2` (stereo partly drawn) [Example 53, (S)-quinuclidin-3-yl (7-(isoquinolin-4-yl)chroman-4-yl)carbamate] the same measures were 2.66 nM and 1.77 nM.
With `O=C(NC1CCOc2cc(-c3cccc4cnccc34)ccc21)O[C@@H]1CN2CCC1CC2` (stereo partly drawn) [Example 54, (S)-quinuclidin-3-yl (7-(isoquinolin-5-yl)chroman-4-yl)carbamate], the values for the IC50 in assay [1] and in assay [2] were 14.1 nM and 2.14 nM, respectively.
The like results for `O=C(NC1CCOc2cc(-c3cnc4ccccc4c3)ccc21)O[C@@H]1CN2CCC1CC2` (stereo partly drawn) [Example 55, (S)-quinuclidin-3-yl (7-(quinolin-3-yl)chroman-4-yl)carbamate] were, in that order, 22.3 nM and 3.58 nM.
For the compound `O=C(NC1CCOc2cc(-c3cccc4cccnc34)ccc21)O[C@@H]1CN2CCC1CC2` (stereo partly drawn) [Example 56, (S)-quinuclidin-3-yl (7-(quinolin-8-yl)chroman-4-yl)carbamate], the half-maximal inhibitory concentration (IC50) in assay [1] was determined as 6.03 nM; in assay [2], 1.38 nM.
`O=C(NC1CCOc2cc(-c3ccc4ccncc4c3)ccc21)O[C@@H]1CN2CCC1CC2` (stereo partly drawn) [Example 57, (S)-quinuclidin-3-yl (7-(isoquinolin-7-yl)chroman-4-yl)carbamate]: the IC50 in assay [1] worked out at 36.6 nM; in assay [2], 3.52 nM.
The like results for `O=C(NC1CCOc2cc(-c3ccc4c(c3)OCCCO4)ccc21)O[C@@H]1CN2CCC1CC2` (stereo partly drawn) [Example 58, (S)-quinuclidin-3-yl (7-(3,4-dihydro-2H-benzo[b][1,4]dioxepin-7-yl)chroman-4-yl)carbamate] were, in that order, 21.2 nM and 2 nM.
As to `O=C(NC1CCOc2cc(-c3cccc(-c4ccccc4)c3)ccc21)O[C@@H]1CN2CCC1CC2` (stereo partly drawn) [Example 59, (S)-quinuclidin-3-yl (7-([1,1′-biphenyl]-3-yl)chroman-4-yl)carbamate], the results for the IC50 in assay [1] and in assay [2] were 2.22 nM and 0.3 nM, respectively.
The like results for `O=C(NC1CCOc2cc(-c3cccc(S(=O)(=O)N4CCCC4)c3)ccc21)O[C@@H]1CN2CCC1CC2` (stereo partly drawn) [Example 60, (S)-quinuclidin-3-yl (7-(3-(pyrrolidin-1-ylsulfonyl)phenyl)chroman-4-yl)carbamate] were, in that order, 16.5 nM and 2.39 nM.
For `O=C(NC1CCOc2cc(-c3ccc4c(c3)COC4)ccc21)O[C@@H]1CN2CCC1CC2` (stereo partly drawn) [Example 61, (S)-quinuclidin-3-yl (7-(1,3-dihydroisobenzofuran-5-yl)chroman-4-yl)carbamate] the same measures were 40.1 nM and 1.36 nM.
The like results for `O=C(NC1CCOc2cc(-c3ccc4nsnc4c3)ccc21)O[C@@H]1CN2CCC1CC2` (stereo partly drawn) [Example 62, (S)-quinuclidin-3-yl (7-(benzo[c][1,2,5]thiadiazol-5-yl)chroman-4-yl)carbamate] were, in that order, 21.2 nM and 1.03 nM.
For the compound `CN1CCOc2cc(-c3ccc4c(c3)OCCC4NC(=O)O[C@@H]3CN4CCC3CC4)ccc21` (stereo partly drawn) [Example 63, (S)-quinuclidin-3-yl (7-(4-methyl-3,4-dihydro-2H-benzo[b][1,4]oxazin-7-yl)chroman-4-yl)carbamate], the IC50 in assay [1] came to 27 nM; in assay [2], 1.33 nM.
For `O=C(NC1CCOc2cc(-c3ccsc3)ccc21)O[C@@H]1CN2CCC1CC2` (stereo partly drawn) [Example 64, (S)-quinuclidin-3-yl (7-(thiophen-3-yl)chroman-4-yl)carbamate] the same measures were 19.2 nM and 1.32 nM.
As to `COc1ccc(Cl)c(-c2ccc3c(c2)OCCC3NC(=O)O[C@@H]2CN3CCC2CC3)c1` (stereo partly drawn) [Example 65, (S)-quinuclidin-3-yl (7-(2-chloro-5-methoxyphenyl)chroman-4-yl)carbamate], the IC50 amounted to 1.18 nM in assay [1] and 0.22 nM in assay [2].
The like results for `COc1cc(-c2ccc3c(c2)OCCC3NC(=O)O[C@@H]2CN3CCC2CC3)ccc1Cl` (stereo partly drawn) [Example 66, (S)-quinuclidin-3-yl (7-(4-chloro-3-methoxyphenyl)chroman-4-yl)carbamate] were, in that order, 11.3 nM and 1.75 nM.
As to `COc1cccc(-c2ccc3c(c2)OCCC3NC(=O)O[C@@H]2CN3CCC2CC3)c1Cl` (stereo partly drawn) [Example 67, (S)-quinuclidin-3-yl (7-(2-chloro-3-methoxyphenyl)chroman-4-yl)carbamate], the IC50 in assay [1] came out at 11.3 nM; in assay [2] it was 0.93 nM.

For the origin of these results see patent publication US12673944B2, “Compounds having inhibitory activity against glucosylceramide synthase or pharmaceutically acceptable salt thereof, processes for preparing the same, and pharmaceutical compositions comprising the same” (YUHAN CORPORATION, priority 2019, dated 2026).
